Experimental findings from patent publication US20180228780A1, “3-(1H-PYRROLO[2,3-C]PYRIDIN-2-YL)-1H-INDAZOLES AND THERAPEUTIC USES THEREOF” (Samumed, LLC, priority 2015, published 2018) are described below.

Each structure is given as a SMILES string.

What all share (assay type): cell-based
In assay [1] the test system is Wnt activity (Sp5-Luc reporter, SW480 colon carcinoma cells). The assay can be described thus: Screening assay for Wnt activity: Sp5-Luc reporter gene assay in SW480 cells. The conditions noted are these: Homo sapiens; for EC50: SW480 Sp5-Luc reporter, overnight incubation; for inhibition at 10 µM: SW480, read-out: percent inhibition at 10 μM. The method, boiled down: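 SW480 colon carcinoma cells stably carrying Sp5 promoter (eight TCF/LEF sites)-driven firefly luciferase, plated at 4,000 cells/well in 1% FBS medium and incubated overnight at 37° C. Luminescence normalised to DMSO-only cells; EC50 from four-parameter variable-slope nonlinear regression.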

Assay [2] concerns SW480 colon cancer cells. The experiment in a line: Cell viability assay (CellTiter-Blue) in SW480 colon cancer cells. The conditions noted are these: Homo sapiens; for EC50: 96 h, SW480 cell viability, four days incubation; for inhibition at 10 µM: SW480, read-out: percent inhibition at 10 μM. Put shortly: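 Fluorescence from resazurin reduced to resorufin by metabolically active cells was the read-out, taken after ~3 h with CellTiter-Blue.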

Assay [3] deals with Primary human fibroblasts derived from IPF patients (LL29 cells). The experiment in a line: Inhibition of the fibrotic process: αSMA staining in TGF-β1-treated LL29 fibroblasts. The conditions noted are these: Fibroblast; for EC50: 96 h, LL29 cells, TGF-β1 20 ng/mL, 4 days, % αSMA-positive cells. The method, boiled down:
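LL29 IPF-patient lung fibroblasts plated in F12 with 1% FBS, treated with TGF-β1 plus compound; TGF-β1/DMSO wells served as controls. After 4 days incubation, SYTOX green (1 μM final) added for 30 min at room temperature; αSMA staining used as fibrosis read-out.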

Assay [4] relates to primary human mesenchymal stem cells (hMSCs). The experiment in a line: Induction of chondrogenesis in hMSCs (nodule imaging, Rhodamine B / Nile Red). The conditions noted are these: 6 days; for EC50: concentration required to induce 50% levels of chondrogenesis vs TGF-β3, read-out: Conc (nM) of 50% TGF-β3 activity; for Emax: relative to TGF-β3 (10 ng/mL) positive control, read-out: Max. Activity as % TGF-β3 activity. Put shortly:
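Primary hMSCs at passage 3-6 were treated with compound; nodule area per well was normalized to the mean of 3 DMSO wells, averaged over 2-3 replicates, and the concentration giving 50% chondrogenesis relative to TGF-β3 control, plus maximum activity and its dose, was derived.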

The subject of assay [5] is IL-6 (THP-1 cells). The experiment in a line: IL-6 inhibition in THP-1 monocytes (HTRF). The conditions noted are these: Homo sapiens; for EC50: IL-6 inhibition, THP-1 cells, HTRF, 10-point dose-response starting from 10 μM; for inhibition at 10 µM: THP-1, read-out: percentage in parentheses printed under EC50 >10. The method, boiled down: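 THP-1 cells serum-reduced (1% FBS, 24 h), plated 5000/well, stimulated with 500 ng/mL […] after 2 h and incubated a further 22 h at 37 °C. Secreted IL-6 quantified by HTRF (665/620 nm ratio), normalized to DMSO; EC50 from four-parameter fit, duplicates.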

`Fc1cccc(-c2cncc3[nH]c(-c4n[nH]c5ccc(C6CCNCC6)cc45)cc23)c1` [Compound 505, 3-(4-(3-Fluorophenyl)-1H-pyrrolo[2,3-c]pyridin-2-yl)-5-(piperidin-4-yl)-1H-indazole]: the EC50 in assay [1] was found to be 3.23 µM; in assay [2], 4.15 µM; in assay [3], 2.5 µM; in assay [4] it was 2700 nM; in assay [5], 5.43 µM. Also, in assay [4], the Emax worked out at 51%.
For `Cn1cc(-c2ccc3[nH]nc(-c4cc5c(-c6cccnc6)cncc5[nH]4)c3c2)cn1` [Compound 556, 5-(1-Methyl-1H-pyrazol-4-yl)-3-(4-(pyridin-3-yl)-1H-pyrrolo[2,3-c]pyridin-2-yl)-1H-indazole], the EC50 in assay [1] was 0.25 µM; in assay [2], 0.506 µM; in assay [3] it was greater than 10 µM; in assay [4], 30 nM; in assay [5], greater than 10 µM. Moreover, the inhibition at 10 µM worked out at 0% in assay [3] (read-out: percent inhibition at 10 μM) and 44.3% in assay [5]. Also, the Emax in assay [4] was found to be 65%.
Regarding `Cc1ncc(-c2ccc3[nH]nc(-c4cc5c(-c6ccncc6)cncc5[nH]4)c3c2)n1C` [Compound 573, 5-(1,2-Dimethyl-1H-imidazol-5-yl)-3-(4-(pyridin-4-yl)-1H-pyrrolo[2,3-c]pyridin-2-yl)-1H-indazole], the EC50 is 2.9 µM in assay [1], greater than 10 µM in assay [2], 2.16 µM in assay [3] and greater than 10 µM in assay [5]. Also, the figures for the inhibition at 10 µM in assay [2] and in assay [5] were 30.3% and 11%, respectively. Further, the Emax in assay [4] is 28%.
`CN1CCN(c2cncc3[nH]c(-c4n[nH]c5ccc(-c6cncc(NC(=O)CC7CCNCC7)c6)cc45)cc23)CC1` [Compound 641, N-(5-(3-(4-(4-Methylpiperazin-1-yl)-1H-pyrrolo[2,3-c]pyridin-2-yl)-1H-indazol-5-yl)pyridin-3-yl)-2-(piperidin-4-yl)acetamide]: the inhibition at 10 µM in assay [1] was determined as 6.7%; in assay [2] it was 11.9%; in assay [5], 43.7%. For the same compound, the EC50 in assay [1] was greater than 10 µM; in assay [2], greater than 10 µM; in assay [3] it was 6.44 µM; in assay [4], 100 nM; in assay [5], greater than 10 µM. Also, the Emax in assay [4] was 289%.
As to `c1cc2cc(-c3n[nH]c4ccc(-c5cncc(OCCN6CCCC6)c5)cc34)[nH]c2cn1` [Compound 658, 5-(5-(2-(Pyrrolidin-1-yl)ethoxy)pyridin-3-yl)-3-(1H-pyrrolo[2,3-c]pyridin-2-yl)-1H-indazole], the EC50 is 1.84 µM in assay [1], 3.15 µM in assay [2], 0.925 µM in assay [3] and 0.134 µM in assay [5]. Also, the Emax in assay [4] was found to be 45%.
Regarding `COc1cncc(-c2ccc3[nH]nc(-c4cc5c(-c6ccsc6)cncc5[nH]4)c3c2)c1` [Compound 676, 5-(5-Methoxypyridin-3-yl)-3-(4-(thiophen-3-yl)-1H-pyrrolo[2,3-c]pyridin-2-yl)-1H-indazole], the EC50 in assay [1] was found to be 0.956 µM; in assay [2], 0.51 µM; in assay [3], 0.434 µM; in assay [5], 2.58 µM. For the same compound, the Emax in assay [4] turned out to be 40%.
As for `COc1cncc(-c2ccc3[nH]nc(-c4cc5c(-c6ccoc6)cncc5[nH]4)c3c2)c1` [Compound 692, 3-(4-(Furan-3-yl)-1H-pyrrolo[2,3-c]pyridin-2-yl)-5-(5-methoxypyridin-3-yl)-1H-indazole], the EC50 in assay [1] was determined as 2.2 µM; in assay [2], 1.1 µM; in assay [3], 0.728 µM; in assay [4], 10 nM; in assay [5] it was 8.27 µM. For the same compound, the Emax in assay [4] came to 170%.
For `CN(C)Cc1cncc(-c2cc(F)c3[nH]nc(-c4cc5c(-c6cccc(F)c6)cncc5[nH]4)c3c2)c1` [Compound 991, 1-(5-(7-Fluoro-3-(4-(3-fluorophenyl)-1H-pyrrolo[2,3-c]pyridin-2-yl)-1H-indazol-5-yl)pyridin-3-yl)-N,N-dimethylmethanamine], the EC50 is 3.71 µM in assay [1], 1.04 µM in assay [2], 1.23 µM in assay [3] and 3.71 µM in assay [5]. In assay [4], the Emax turned out to be 38%.
For `CN(C)Cc1cncc(-c2cc3c(-c4cc5c(-c6cccc(F)c6)cncc5[nH]4)n[nH]c3cc2F)c1` [Compound 992, 1-(5-(6-Fluoro-3-(4-(3-fluorophenyl)-1H-pyrrolo[2,3-c]pyridin-2-yl)-1H-indazol-5-yl)pyridin-3-yl)-N,N-dimethylmethanamine], the EC50 in assay [1] was found to be 0.96 µM; in assay [2] it was 0.294 µM; in assay [3], 0.92 µM; in assay [5] it was 0.074 µM. For the same compound, the Emax in assay [4] came out at 21%.
As to `CN(C)Cc1cncc(-c2ccc3[nH]nc(-c4cc5c(-c6cccc(F)c6)cncc5[nH]4)c3c2F)c1` [Compound 993, 1-(5-(4-Fluoro-3-(4-(3-fluorophenyl)-1H-pyrrolo[2,3-c]pyridin-2-yl)-1H-indazol-5-yl)pyridin-3-yl)-N,N-dimethylmethanamine], the inhibition at 10 µM in assay [1] was 46.8%; in assay [5], 18.1%. Further, the EC50 in assay [1] was greater than 10 µM; in assay [2], 1.6 µM; in assay [3], 1.7 µM; in assay [4], 2700 nM; in assay [5], greater than 10 µM. Besides, the Emax in assay [4] came out at 114%.
